Results from article PMC12169608, “Peptidomimetic Phenoxymethyl Ketone Warheads as Potent Dual-Mode Inhibitors against SARS-CoV‑2 M^pro and Cathepsin” (Journal of Medicinal Chemistry, 2025).
Values after ≈ are worked out from the molar mass of the structure shown. Read-outs that look alike come from different tables or passages of the source.

Experiments:
[1] = target: T1, human cathepsin L (hCTSL) (Homo sapiens, UniProt P07711); experiment: hCTSL biochemical assay
T1 construct: purchased R&D Systems
T1 sequence (P07711 114-333): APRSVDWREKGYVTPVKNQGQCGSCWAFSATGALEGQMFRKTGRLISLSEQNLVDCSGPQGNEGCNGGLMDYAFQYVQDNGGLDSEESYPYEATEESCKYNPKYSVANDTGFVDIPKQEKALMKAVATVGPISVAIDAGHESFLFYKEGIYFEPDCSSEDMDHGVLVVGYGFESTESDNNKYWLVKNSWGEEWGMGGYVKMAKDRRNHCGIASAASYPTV

Neutrophil Elastase 2 = target: T2, Neutrophil Elastase 2 (Homo sapiens, UniProt P08246); experiment: Protease panel: Neutrophil Elastase 2; type: biochemical
T2 construct: neutrophils; tissue Eurofins Discovery (assay service); host or cells: human neutrophils
T2 sequence (P08246 30-267): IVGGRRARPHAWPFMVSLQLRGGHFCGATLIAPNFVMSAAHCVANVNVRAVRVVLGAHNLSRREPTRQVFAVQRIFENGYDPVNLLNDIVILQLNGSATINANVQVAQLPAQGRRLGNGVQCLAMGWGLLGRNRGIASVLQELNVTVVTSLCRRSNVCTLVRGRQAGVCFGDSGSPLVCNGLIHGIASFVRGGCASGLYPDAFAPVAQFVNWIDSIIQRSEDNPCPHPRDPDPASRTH

[2] = Hamster hepatocyte stability; details: cryopreserved hepatocytes, t1/2 (hamster hepatocytes), without ritonavir
physchem [3] = details: pH 7.4
Cathepsin D = target: T3, Cathepsin D (Homo sapiens, UniProt P07339); experiment: Protease panel: Cathepsin D; type: biochemical
T3 construct: Human liver; tissue Eurofins Discovery (assay service); host or cells: human liver
T3 sequence (P07339 65-412): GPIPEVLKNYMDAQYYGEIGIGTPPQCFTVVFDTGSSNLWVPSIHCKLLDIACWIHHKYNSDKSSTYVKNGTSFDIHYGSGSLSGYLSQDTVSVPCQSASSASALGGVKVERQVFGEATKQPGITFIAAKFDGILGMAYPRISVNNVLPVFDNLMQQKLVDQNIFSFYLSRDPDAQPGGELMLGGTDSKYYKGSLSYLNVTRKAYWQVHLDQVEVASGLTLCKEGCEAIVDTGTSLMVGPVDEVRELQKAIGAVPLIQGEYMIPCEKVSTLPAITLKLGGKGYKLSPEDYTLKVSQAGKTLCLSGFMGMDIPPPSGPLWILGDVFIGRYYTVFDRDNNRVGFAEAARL

in vitro [4] = details: hamster, hepatocytes
[5] = target: mouse cathepsin L (mCTSL) (Mus musculus, UniProt P06797); experiment: mCTSL biochemical assay
mouse cathepsin L (mCTSL), sequence (P06797 114-334): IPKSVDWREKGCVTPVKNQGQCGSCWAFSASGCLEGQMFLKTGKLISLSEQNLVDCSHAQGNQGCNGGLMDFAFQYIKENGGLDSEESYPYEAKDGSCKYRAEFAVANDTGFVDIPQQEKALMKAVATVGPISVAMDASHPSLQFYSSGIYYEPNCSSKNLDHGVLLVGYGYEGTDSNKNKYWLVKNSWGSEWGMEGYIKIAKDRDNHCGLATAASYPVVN

SARS-CoV-2 = experiment: microbe, parasite or virus in culture; type: cell-based; details: Severe acute respiratory syndrome coronavirus 2, Vero C1008, read-out: SARS-CoV-2 CPE reduction assay pEC50 (converted)
in vitro [6] = details: mouse, plasma, mouse plasma protein binding
[7] = target: human cathepsin B (hCTSB) (Homo sapiens, UniProt P07858); experiment: hCTSB biochemical assay
[8] = Mouse liver microsomal stability; details: microsomes, pH 7.4
physchem [9] = details: pH 7.4; remark: listed apart in the source
Calpain-1 = target: T4, Calpain-1 (Homo sapiens, UniProt P07384); experiment: Protease panel: Calpain-1; type: biochemical
T4 construct: erythrocytes; tissue Eurofins Discovery (assay service); host or cells: human erythrocytes
T4 sequence (P07384 1-714): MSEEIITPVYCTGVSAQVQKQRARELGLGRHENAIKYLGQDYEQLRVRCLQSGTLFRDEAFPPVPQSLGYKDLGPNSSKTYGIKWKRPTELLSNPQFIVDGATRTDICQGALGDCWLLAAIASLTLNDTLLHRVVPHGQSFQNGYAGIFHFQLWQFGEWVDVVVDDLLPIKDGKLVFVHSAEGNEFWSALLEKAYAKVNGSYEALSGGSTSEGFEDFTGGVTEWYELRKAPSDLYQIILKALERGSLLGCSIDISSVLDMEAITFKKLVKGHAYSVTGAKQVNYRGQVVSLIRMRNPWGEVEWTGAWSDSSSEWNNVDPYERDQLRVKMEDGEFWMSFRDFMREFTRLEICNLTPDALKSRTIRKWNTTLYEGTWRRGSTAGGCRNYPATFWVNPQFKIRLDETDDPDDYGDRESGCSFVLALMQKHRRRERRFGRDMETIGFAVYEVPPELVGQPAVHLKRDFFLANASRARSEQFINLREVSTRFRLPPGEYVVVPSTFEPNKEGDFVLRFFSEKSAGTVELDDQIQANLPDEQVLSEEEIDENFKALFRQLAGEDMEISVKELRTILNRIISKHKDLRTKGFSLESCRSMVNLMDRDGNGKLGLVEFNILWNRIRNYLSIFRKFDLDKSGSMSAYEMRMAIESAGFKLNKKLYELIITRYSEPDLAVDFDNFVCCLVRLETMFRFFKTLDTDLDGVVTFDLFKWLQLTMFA
T4 sequence (P04632 1-268 partner): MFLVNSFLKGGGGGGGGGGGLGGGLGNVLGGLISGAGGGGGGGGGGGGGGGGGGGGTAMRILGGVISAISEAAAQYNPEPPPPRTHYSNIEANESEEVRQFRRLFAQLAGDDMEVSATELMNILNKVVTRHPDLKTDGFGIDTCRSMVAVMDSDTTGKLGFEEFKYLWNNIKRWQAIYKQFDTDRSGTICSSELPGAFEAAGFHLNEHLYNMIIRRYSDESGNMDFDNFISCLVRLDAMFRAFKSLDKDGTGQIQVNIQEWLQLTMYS

hamster CTSL = hamster CTSL (Mesocricetus auratus, UniProt Q812A7); experiment: hamster CTSL biochemical assay
hamster CTSL, sequence (Q812A7 entry or part of it): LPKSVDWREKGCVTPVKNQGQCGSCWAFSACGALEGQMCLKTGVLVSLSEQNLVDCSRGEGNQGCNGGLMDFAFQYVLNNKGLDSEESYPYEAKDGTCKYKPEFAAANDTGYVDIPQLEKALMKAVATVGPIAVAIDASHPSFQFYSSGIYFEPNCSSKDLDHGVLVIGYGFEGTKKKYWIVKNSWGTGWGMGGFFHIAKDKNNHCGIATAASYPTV

[10] = 3 h, 2 µM
SARS-CoV-2 M^pro = SARS-CoV-2 M^pro (Severe acute respiratory syndrome coronavirus 2, UniProt P0DTD1); experiment: biochemical; type: biochemical
[11] = Hamster liver microsomal stability; details: microsomes, pH 7.4
[12] = tested on: luciferase-expressing VSV (ΔG) pseudotyped with Spike from SARS-CoV-2; experiment: microbe, parasite or virus in culture; type: cell-based
in vitro [13] = details: mouse, microsomes, pH 7.4
[14] = Mouse hepatocyte stability
in vitro [15] = details: African green monkey
Caspase 2 = target: T5, Caspase 2 (Homo sapiens, UniProt P42575); experiment: Protease panel: Caspase 2; type: biochemical
T5 construct: purchased Eurofins Discovery (assay service); host or cells: E. coli
T5 sequence (P42575 170-325 limits assumed): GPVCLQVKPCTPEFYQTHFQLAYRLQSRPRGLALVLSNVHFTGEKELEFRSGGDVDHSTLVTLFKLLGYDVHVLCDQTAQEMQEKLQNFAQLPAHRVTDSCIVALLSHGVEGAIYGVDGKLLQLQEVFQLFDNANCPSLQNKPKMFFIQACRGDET
T5 sequence (P42575 348-452 limits assumed): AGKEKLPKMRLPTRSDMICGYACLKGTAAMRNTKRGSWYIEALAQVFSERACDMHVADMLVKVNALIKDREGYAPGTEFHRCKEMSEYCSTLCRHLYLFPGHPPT

in vitro [16] = details: hamster, microsomes, pH 7.4
trypsin = experiment: Protease panel: trypsin
in vitro [17] = details: mouse, hepatocytes, CLint (mouse hepatocytes)
thrombin = target: T6, thrombin (Homo sapiens, UniProt P00734); experiment: Protease panel: thrombin; type: biochemical
T6 construct: preincubated with thrombin (10 nM, Sigma); purchased Sigma-Aldrich

[18] = target: mouse cathepsin B (mCTSB) (Mus musculus, UniProt P10605); experiment: mCTSB biochemical assay
mouse cathepsin B (mCTSB), sequence (P10605 80-339): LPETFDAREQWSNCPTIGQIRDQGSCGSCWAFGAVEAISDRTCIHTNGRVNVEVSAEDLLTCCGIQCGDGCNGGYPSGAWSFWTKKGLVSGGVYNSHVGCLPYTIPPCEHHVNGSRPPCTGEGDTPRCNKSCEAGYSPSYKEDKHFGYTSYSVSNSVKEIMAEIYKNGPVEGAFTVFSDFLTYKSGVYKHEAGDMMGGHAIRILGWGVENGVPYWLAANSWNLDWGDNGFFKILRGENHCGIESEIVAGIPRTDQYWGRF

[19] = pH 7.4
[20] = Plasma protein binding (ultra-centrifugation)
Kinetic solubility = details: PBS buffer pH 7.4

In the case of `COc1cccc2[nH]c(C(=O)N[C@@H](Cc3cccc(F)c3)C(=O)N[C@@H](C[C@@H]3CCNC3=O)C(=O)COc3c(F)c(F)c(C(C)O)c(F)c3F)cc12` (stereo partly drawn) [compound 8, N-((2S)-3-(3-Fluorophenyl)-1-oxo-1-(((2S)-3-oxo-1-((S)-2-oxopyrrolidin-3-yl)-4-(2,3,5,6-tetrafluoro-4-(1-hydroxyethyl)phenoxy)butan-2-yl)amino)propan-2-yl)-4-methoxy-1H-indole-2-carboxamide], the “hCTSL biochemical assay pIC50” value [1] is reported as 7.34, the inhibition at 10 µM (Neutrophil Elastase 2) is reported as 2% and the half-life at 2 h, 2 µM [2] is reported as 20.9 min. It also gave a logD at 1 h (physchem [3]) of 3.26, an inhibition at 10 µM (Cathepsin D) of 9% and a remaining at 2 h, 1 µM (in vitro [4]; % remaining at 120 min (hamster hepatocytes, compound/ritonavir 1:1)) of 7.05%. It also gave a remaining at 2 h, 1 µM (in vitro [4]; % remaining at 120 min (hamster hepatocytes, compound/ritonavir 2:1)) of 2.78%, a hepatocyte CLint at 2 h, 4 µM (in vitro [4]; CLint (hamster hepatocytes + ritonavir 4:1)) of 29.7 µL/min/1e6 cells and a hepatocyte CLint at 2 h, 2 µM (in vitro [4]; CLint (hamster hepatocytes)) of 33.1 µL/min/1e6 cells. For the same compound, the hepatocyte CLint at 1 µM (in vitro [4]; CLint (hamster hepatocytes, compound/ritonavir 1:1)) was 22.6 µL/min/1e6 cells, the hepatocyte CLint at 1 µM (in vitro [4]; CLint (hamster hepatocytes, compound/ritonavir 2:1)) was 31.7 µL/min/1e6 cells and the half-life at 2 h, 4 µM (in vitro [4]; t1/2 (hamster hepatocytes + ritonavir 4:1)) was 23.3 min. For the same compound, the half-life at 1 µM (in vitro [4]; t1/2 (hamster hepatocytes, compound/ritonavir 1:1)) was 30.7 min, the half-life at 1 µM (in vitro [4]; t1/2 (hamster hepatocytes, compound/ritonavir 2:1)) was 21.9 min and the IC50 ([5]; read-out: pIC50 (mouse CTSL) (converted)) was 0.288 µM. The EC50 (SARS-CoV-2) was 0.158 µM, the fraction unbound at 3 h, 2 µM (in vitro [6]; fraction bound (Fb)) was 0.0083 and the fraction unbound at 3 h, 2 µM (in vitro [6]; fraction unbound (Fu)) was 0.0083. The “hCTSB biochemical assay pIC50” value [7] was 5.73, the half-life at 1 µM [8] was 1.28 min and the solubility kinetic at 24 h (physchem [9]) was 12.3 µM (≈ 8.81 µg/mL). The inhibition at 10 µM (Calpain-1) was 5%, the “pIC50 (hamster CTSL)” value (hamster CTSL) was 7.92 ± 0.18 and the “mouse plasma protein binding, fraction bound (Fb)” value [10] was 99.17%. It also gave an IC50 (SARS-CoV-2 M^pro; read-out: M^pro biochemical assay pIC50 (converted)) of 0.00562 µM, a half-life at 1 µM [11] of 1.08 min and an EC50 ([12]; Vesicular stomatitis virus, Vero C1008, read-out: Entry reporter assay pEC50 (converted)) of 2.88 µM. The microsomal CLint at 1 µM (in vitro [13]) was 1100 µL/min/mg, the remaining at 1 h, 1 µM (in vitro [13]) was 0% and the half-life at 1 µM ([14]; mouse, cryopreserved hepatocytes) was 26.9 min. It also gave a CC50 (in vitro [15]) of over 1.26 µM, an inhibition at 10 µM (Caspase 2) of 20% and a microsomal CLint at 1 µM (in vitro [16]) of 1290 µL/min/mg. The remaining at 1 h, 1 µM (in vitro [16]) was 0%, the “Trypsin inhibition at 10 μM” value (trypsin) was 7.5 ± 4.9% and the hepatocyte CLint at 2 h, 2 µM (in vitro [17]) was 64.5 µL/min/1e6 cells. It also gave an inhibition at 10 µM (thrombin) of -0.2 ± 0.6%.
In the case of “N-((S)-3-(3-Fluorophenyl)-1-oxo-1-(((S)-2-oxo-5-(5-oxo-1,5-dihydro-4H-1,2,4-triazol-4-yl)-1-(2,3,5,6-tetrafluoro-4-(2-hydroxypropan-2-yl)phenoxy)pentan-3-yl)amino)propan-2-yl)-4-methoxy-1H-indole-2-carboxamide [compound 12]”, the “hCTSL biochemical assay pIC50” value [1] is reported as 9.48, the “selectivity for hCTSL over M^pro” value [1] is reported as “more than 500 fold” and the “pIC50 (mouse CTSL)” value [5] is reported as 7.66. For the same compound, the “pIC50 (mouse CTSB)” value [18] was over 8.16, the logD [19] was 2.88 and the “hCTSB biochemical assay pIC50” value [7] was 6.65. For the same compound, the “mouse plasma protein binding, fraction bound (Fb)” value [20] was 99.69%, the “mouse plasma protein binding, fraction unbound (Fu)” value [20] was 0.31% and the kinetic solubility (Kinetic solubility) was 5.84 µM. The “M^pro biochemical assay pIC50” value (SARS-CoV-2 M^pro) was 6.75, the “Entry reporter assay pEC50” value [12] was 5.14 and the “CLint (mouse hepatocytes + ritonavir 4:1)” value ([14]; compound/ritonavir 4:1) was 37.1 μL/min/10^6 cells. For the same compound, the “t1/2 (mouse hepatocytes + ritonavir 4:1)” value ([14]; compound/ritonavir 4:1) was 46.7 min, the “CLint (mouse hepatocytes)” value ([14]; without ritonavir) was 76.8 μL/min/10^6 cells and the “t1/2 (mouse hepatocytes)” value ([14]; without ritonavir) was 22.6 min. The “pCC50 (CPE), cytotoxicity” value (Vero E6 cells) was under 5.00.
